Data from publication PMC5226491, “Efficient therapeutic delivery by a novel cell-permeant peptide derived from KDM4A protein for antitumor and antifibrosis” (Oncotarget, 2016).

Assays:
Caski cells = format: cell-based, human
Method: (§1) Intracellular fluorescence intensity quantification was measured using Multimode Microplate Reader (Tecan 2000; Tecan, Mannedorf, Switzerland). The intracellular uptake of FITC-labeled peptide was performed as described previously. Briefly, after the incubation, cells were washed and then lysed by adding 300 μl lysing buffer (0.1 M NaOH) for 10 min, the cell lysates were harvested and centrifuged (14000 g for 5 min), the supernatant was used to measure the fluorescence intensity. The fluorescence of cellular uptake is expressed as fluorescence intensity per mg of total cellular protein. All experiments were repeated at least three times and always performed in triplicate.

different cell lines [1] = assay: Uptake of FITC-labeled hPP10 in different cell lines; format: cell-based; conditions: for Effect of temperature on internalization: incubation at 4°C or 37°C, with or without DMSO
Method: as §1

[2] = tested on: primary cultured cells (mouse spleen lymphocytes, human peripheral blood lymphocytes, mouse primary fibroblast cells); assay: Uptake of FITC-labeled hPP10 in primary cultured cells; format: cell-based; conditions: mouse spleen lymphocytes and hPBMCs with 5% DMSO treatment
Method: The internalization of FITC conjugated hPP10 into cultured cells was observed using fluorescence microscopy. All types of cells were plated in 24-well-plates (Greiner, Germany) and cultivated to semi-confluence in RPMI-1640 medium in a CO2 incubator for 24 h at 37°C. Cells were washed with PBS, followed by 5.0 μM FITC-labeled peptide or fusion protein incubation with serum-free medium for 1 h at 37°C, the medium was removed, the cells were further washed with PBS 3 times, and then imaged using fluorescence microscope (Nikon, Japan) with a band-pass filter.

different cell lines [3] = tested on: different cell lines
Method: Cells were seeded in 96-well plates at 24 h before treatment. […] MTT solution (5 mg/mL) was added into fresh serum medium for further 4 h incubation. DMSO was used to solubilize formazan, and the absorbance was measured using a Multiskan Spectrum plate reader (Thermo, USA).

different cell lines [4] = tested on: different cell lines; remark: listed apart in the source
Method: Membrane integrity was assessed by lactate dehydrogenase (LDH) leakage into the culture medium. […] Cell-free supernatant was obtained and transferred to another 96-well-plate; substrate mixture was added to each well for another 10 min enzymatic reaction. Absorbance was measured at 560/590 nm using a Multiskan Spectrum plate-reader (Thermo, USA).

| Sequence | Fluorescence of cytosol compared with TAT-FITC (Caski cells) | Permeation of cancerous or immortalized cell lines (different cell lines [1]; B16, ECV304, HepG2, T24, L929, HSC-T6, THP1, 5 μM FITC-labeled peptide, 1 h) | Permeation of primary cultured cells [2] | Cytotoxicity, MTT assay (different cell lines [3]) | Membrane disturbance, LDH release (different cell lines [4]) | Effect of temperature on internalization (different cell lines [1]) | Duration of intracellular fluorescence (Caski cells) | Effect of heparin on cellular uptake (different cell lines [1]; co-incubated with 0.5 U/mL heparin, different cells) | Effect of serum on penetrating efficiency (different cell lines [1]; different cell lines, mean ± SD for 3 samples) |
| --- | --- | --- | --- | --- | --- | --- | --- | --- | --- |
| KIPLPRFKLKCIFCKKRRKR [hPP10] | higher than TAT-FITC group | capable of permeating a wide variety of cancerous or immortalized cell lines | able to permeate into primary cultured cells | minimal cytotoxicity | low membrane disturbance |  |  |  |  |
| YGRKKRRQ RRRK [TAT-FITC, FITC-labeled HIV-1 TAT peptide used for positive control, reference compound] |  |  |  |  |  | energy-dependent with or without DMSO treatment |  |  |  |
| KIPLPRFKLKCIFCKKRRKR [hPP10-FITC, synthesized FITC-labeled hPP10 peptide] |  |  |  |  |  | less energy-sensitive than that of TAT-FITC without DMSO treatment | long-lasting fluorescence than TAT-FITC | greatly decreased in the presence of heparin | decreased in the presence of serum |
